Read-outs that look alike come from different tables or passages of the source.
Legend:
S1PR5 = biological target: T1, S1PR5 (Homo sapiens, UniProt Q9H228); assay: FLIPR assay, S1PR5-CHO cell line; assay type: cell-based; details: mean ± SD
T1 construct: expressed in transfected cells

hS1P4 [1] = biological target: T2, hS1P4 (Homo sapiens, UniProt O95977); assay: Tango β-arrestin recruitment luciferase assay, Tango-hS1P4-CHO; assay type: cell-based
T2 construct: expressed in transfected cells; host or cells: CHO
T2 sequence (O95977 1-384): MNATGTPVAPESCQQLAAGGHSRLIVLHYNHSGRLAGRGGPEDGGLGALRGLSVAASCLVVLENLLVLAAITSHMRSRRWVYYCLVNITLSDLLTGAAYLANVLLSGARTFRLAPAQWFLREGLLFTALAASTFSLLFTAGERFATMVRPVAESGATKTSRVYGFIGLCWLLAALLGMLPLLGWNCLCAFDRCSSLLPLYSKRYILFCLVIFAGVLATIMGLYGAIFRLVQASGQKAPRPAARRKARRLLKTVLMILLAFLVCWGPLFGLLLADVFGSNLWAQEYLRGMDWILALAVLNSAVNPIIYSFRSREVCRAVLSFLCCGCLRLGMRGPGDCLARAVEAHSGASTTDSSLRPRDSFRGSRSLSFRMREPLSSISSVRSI
Summary of the method: (§1)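 CHO Tango cells (receptor–V2 tail–TEV/tTA fusion, β-arrestin 2–TEV, UAS-luciferase reporter) plated overnight (20 h) at 37°C, then treated 20 h with compounds, top final 45 µM, 9 five-fold dilutions, triplicates. Luciferase luminescence read; BAF-312 positive control at 1 µM (S1PR1) or 25 µM (S1PR4).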

hS1P4 [2] = assay: as above; assay type: cell-based, human; details: S1PR4 versus S1PR1, β-arrestin recruitment EC50
Summary of the method: as §1

[3] = S1PR4, Tango-S1PR4-CHO-K1 cells, mean ± SD, read-out: EC50
[4] = β-arrestin recruitment, 20 h drug treatment, top 45 µM, 9 serial 5-fold dilutions, positive control 25 µM BAF-312, read-out: Tango-hS1P4-CHO EC50

T1 sequence (Q9H228 whole entry, species assumed): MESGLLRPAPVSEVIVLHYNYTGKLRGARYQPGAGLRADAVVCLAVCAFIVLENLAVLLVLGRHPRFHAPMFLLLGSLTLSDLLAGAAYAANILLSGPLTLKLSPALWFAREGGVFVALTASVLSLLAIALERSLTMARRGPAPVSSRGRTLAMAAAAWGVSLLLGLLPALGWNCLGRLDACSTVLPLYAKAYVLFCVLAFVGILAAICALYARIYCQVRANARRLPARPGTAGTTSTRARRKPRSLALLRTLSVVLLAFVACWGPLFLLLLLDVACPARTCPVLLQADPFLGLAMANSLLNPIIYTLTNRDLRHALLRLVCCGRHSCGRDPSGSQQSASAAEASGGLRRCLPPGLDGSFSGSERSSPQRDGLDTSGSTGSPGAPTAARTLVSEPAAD

Compound	EC50 (S1PR5)	EC50 (S1PR5; read-out: EC50) [nM]	EC50 (hS1P4 [1]; [3]) [nM]	EC50 (hS1P4 [1]; [4]) [nM]	selectivity over S1PR1 (hS1P4 [2])
CCc1cc(/C(C)=N/OCc2ccc(-c3ccccc3)c(C)c2)ccc1CN1CC[C@H](C(=O)O)C1 [Compound 30]	no agonist activity	> 10000	9.09 ± 0.67	9.09	approximately 10 fold
CCc1cc(/C(C)=N/OCc2ccc(-c3cnc(F)cn3)c(C)c2)ccc1CN1CC[C@H](C(=O)O)C1 [Compound 67, (S, E)-1-(2-ethyl-4-(1-(((4-(5-fluoropyrazin-2-yl)-3-methylbenzyl)oxy)imino)ethyl)benzyl)pyrrolidine-3-carboxylic acid]	–	3740 ± 221	1.8 ± 0.43	1.8	more than 100 fold

Reference: EP4790048A1, “S1PR4 REGULATOR COMPOUND FOR AUTOIMMUNE DISEASE TREATMENT AND APPLICATION THEREOF” (Shengyuan Zetong (Shanghai) Pharmaceutical Co., Ltd, priority 2023, dated 2025)
